US5070210A, “Novel ketenimines as intermediates for insecticides” (ICI Americas Inc., priority 1990, dated 1991)

Assays:
Format in all cases: in vivo
[1] = tested on: Tobacco Budworm [Heliothis virescens (Fabricius)] eggs; assay: Tobacco budworm egg test; settings: 2-day old eggs, percent in solution
How it was run: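 Paper-towel patches of 2-day-old eggs dipped in acetone solutions of compound (0.1% downward), held on larval rearing medium at 78° F. Mortality scored once all control eggs had hatched and larvae were feeding; LC50 from dosage-mortality curves, expressed as percent compound in solution.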

[2] = tested on: Tobacco Budworm [Heliothis virescens (Fabricius)] larvae; assay: Tobacco budworm contact test; settings: second-instar larvae, percent in solution, 5 days
Procedure: The compounds in Tables 1 and 2 above were tested for insecticidal activity using the following testing procedures. LC50 values, based on the results of these tests and calculated according to dosage-mortality curves, are expressed in Table 3.
Tobacco Budworm [Heliothis virescens (Fabricius)]:
(a) Contact: Test compounds were diluted in a 50-50 acetone-water solution. Cotton (Gossypium sp.) cotyledons were immersed in the test solutions for 2-3 seconds and placed on a wire screen to dry. The dried leaves were placed in petri dishes containing a moistened piece of filter paper and infested with 5 second-instar tobacco budworm larvae. The dishes were placed in a high humidity chamber for 5 days, and percent mortality of the larvae recorded. Test concentrations ranged from 0.1% downward. The LC-50 values are expressed below in Table 3 under the heading "TBW-C" in terms of percent of the test compound in the solution.

[3] = tested on: Housefly [Musca domestica]; assay: Housefly insecticidal test; settings: μg per 25 female flies; mortality after 48 hours
How it was run: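 Residual contact test: acetone dilution, 0.01% peanut oil spreader, solvent evaporated; 25 ♀ flies (1-2 d old) per cage; sugar-water plug; 48 h mortality read. LC50 in μg/25 female flies, from dose-mortality curves; top dose 100 μg/25 flies.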

[4] = tested on: Maize weevil [Sitophilus Zeamais (Motschulsky)]; assay: Maize weevil insecticidal test; settings: adult weevils, percent in solution; 48 hours
How it was run: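 LC50, in percent of compound in solution, was derived from dosage-mortality curves after 48 h at about 25 °C. Ten adult weevils per container fed on four corn seeds briefly immersed in acetone:water (50:50) solutions of up to 0.01% and dried.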

[5] = tested on: Cabbage Looper [Trichoplusia ni (Hubner)]; assay: Cabbage looper insecticidal test; settings: second-instar larvae, percent in solution; 3-5 days
How it was run: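 Squash cotyledons dipped 2-3 s in compound in 50-50 acetone-water, dried, then infested with 5 second-instar larvae and held at high humidity. Mortality scored after 3-5 days at concentrations from 0.1% downward. LC50 from dosage-mortality curves, expressed as percent compound in solution.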

[6] = tested on: Aster Leafhopper [Macrosteles fascifrens (Stal)]; assay: Aster leafhopper insecticidal test; settings: adults/nymphs, percent in solution; 48 hours
How it was run: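 Three ~10 cm oat seedlings per cup were dipped 2-3 seconds in 50-50 acetone-water compound solutions, dried, and caged with ten adult/nymph leafhoppers. Mortality was counted after 48 hours at concentrations from 0.05% downward. LC50, as percent compound in solution, came from dosage-mortality curves.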

Row | Compound | LC50, TBW, E (TBW-E) [1] | LC50, TBW, C (TBW-C) [2] | LC50, HF [3] | LC50, MW [4] | LC50, CL [5] | LC50, LH [6]
1 | Fc1ccc(N=C(OCc2cccc(Oc3ccccc3)c2)C(Cl)Cl)cc1 [Compound 44] | 0.06% | < 0.1% | 3 µg | – | – | –
2 | CC(C)C(=Nc1ccc2c(c1)OCO2)OCc1cc(Oc2ccc(F)cc2)ccn1 [Compound 515] | > 0.1% | – | 28 µg | > 0.01% | 0.0015% | > 0.05%
3 | CC(C)C(=Nc1ccc(F)c(Cl)c1)OCc1cc(Oc2ccc(Cl)cc2)ccn1 [Compound 516] | > 0.1% | – | > 100 µg | > 0.01% | 0.008% | > 0.05%
4 | CC(C)C(=Nc1cccc(C(F)(F)F)c1)OCc1ccnc(Oc2ccc(Cl)cc2)c1 [Compound 517] | 0.04% | – | 80 µg | > 0.01% | 0.0008% | > 0.05%
5 | CC(C)C(=Nc1cccc(C(F)(F)F)c1)OCc1cccc(Oc2ccc(Cl)cn2)c1 [Compound 518] | > 0.1% | – | > 100 µg | > 0.01% | 0.00075% | > 0.05%
6 | C#CC(OC(=Nc1cccc(C(F)(F)F)c1)C(C)C)c1cccc(Oc2ccccc2)c1 (stereo not drawn) [Compound 519] | > 0.1% | – | 60 µg | > 0.01% | 0.0037% | > 0.05%
7 | CCC(=Nc1ccc(F)c(F)c1)OCc1coc(Cc2ccccc2)c1 [Compound 524] | > 0.1% | – | 5.2 µg | > 0.01% | > 0.1% | > 0.05%
8 | CC(C)(C)C(=Nc1ccc(F)c(F)c1)OCc1coc(Cc2ccccc2)c1 [Compound 525] | > 0.1% | – | > 100 µg | > 0.01% | < 0.1% | > 0.05%
9 | CC(=Nc1ccc(F)c(F)c1)OCc1coc(Cc2ccccc2)c1 [Compound 526] | > 0.1% | – | 8.3 µg | > 0.01% | > 0.1% | > 0.05%
10 | CC(C)C(=Nc1ccc(F)c(Cl)c1)OCc1cccc(Oc2ccc(Cl)cn2)c1 [Compound 527] | 0.035% | – | 47 µg | > 0.01% | 0.00065% | > 0.05%
11 | CC(C)C(=Nc1ccc2c(c1)OCO2)OCc1cccc(Oc2ccc(Cl)cn2)c1 [Compound 532] | > 0.1% | – | > 100 µg | > 0.01% | < 0.1% | > 0.05%
12 | C#CC(OC(=Nc1ccc(F)c(Cl)c1)C(C)C)c1cccc(Oc2ccccc2)c1 (stereo not drawn) [Compound 533, N-(3-chloro-4-fluorophenyl)-O-[1-(3-phenoxyphenyl)-2-propyn-1-yl]isobutyrimidate] | > 0.1% | – | 60 µg | > 0.01% | > 0.1% | > 0.05%
13 | CC(C)C(=Nc1ccc(F)c(Cl)c1)OCC#CCOc1ccccc1 [Compound 534] | > 0.1% | – | > 100 µg | > 0.01% | < 0.1% | > 0.05%
14 | CC(C)C(=Nc1ccc(C(F)(F)F)cc1)OCc1cccc(Cc2ccccc2)c1 [Compound 535] | > 0.1% | – | 41 µg | > 0.01% | > 0.1% | > 0.05%
15 | Cc1c(COC(=Nc2ccc(C(C)(C)C)cc2)C(C)C)cccc1-c1ccccc1 [Compound 536] | > 0.1% | – | > 100 µg | > 0.01% | < 0.1% | > 0.05%
16 | CC(C)C(=Nc1ccc(F)c(Cl)c1)OCc1cccc(Cc2ccccc2)c1 [Compound 537] | > 0.1% | – | 20 µg | > 0.01% | > 0.1% | > 0.05%
17 | CC(C)C(=Nc1ccc(OC(F)(F)F)cc1)OCc1cccc(Cc2ccccc2)c1 [Compound 538] | > 0.1% | – | 75 µg | > 0.01% | > 0.1% | > 0.05%
18 | CC(C)C(=Nc1ccc([N+](=O)[O-])cc1)OCc1coc(Cc2ccccc2)c1 [Compound 539] | > 0.1% | – | 22 µg | > 0.01% | > 0.1% | > 0.05%
19 | CC(C)C(=Nc1ccc2c(c1)OCO2)OCc1ccnc(Oc2ccccc2)c1 [Compound 540] | > 0.1% | – | > 100 µg | > 0.01% | < 0.1% | > 0.05%
20 | COCc1c(F)c(F)c(COC(=Nc2ccc(C(C)(C)C)cc2)C(C)C)c(F)c1F [Compound 544] | > 0.1% | – | > 100 µg | > 0.01% | > 0.1% | > 0.05%
21 | Cc1cccc(N=C(OCc2cccc(Oc3ccc(Cl)cc3)n2)C(C)C)c1 [Compound 545] | > 0.1% | – | < 100 µg | > 0.01% | > 0.1% | > 0.05%
22 | C#CCc1c(F)c(F)c(COC(=Nc2cccc(C(F)(F)F)c2)C(C)C)c(F)c1F [Compound 546] | > 0.1% | – | < 100 µg | 0.0032% | 0.0001% | < 0.05%
23 | C#CCc1c(F)c(F)c(COC(=Nc2ccc3c(c2)OCO3)C(C)C)c(F)c1F [Compound 547] | 0.05% | – | < 100 µg | > 0.01% | 0.0005% | < 0.05%
24 | CC(C)C(=Nc1cccc(C(F)(F)F)c1)OCC#CCOc1ccccc1 [Compound 548] | > 0.1% | – | > 100 µg | > 0.01% | < 0.1% | > 0.05%
25 | CC(C)C(=Nc1ccc(F)c(Cl)c1)OCc1cccc(Oc2ccccn2)c1 [Compound 549] | > 0.1% | – | < 100 µg | > 0.01% | > 0.1% | > 0.05%
